Measured values from US20260285850A1, “SUBSTITUTED OXAZOLIDINONES AND IMIDAZOLINONES AS HERBICIDES” (FMC CORPORATION, priority 2023, published 2026).

Key:
Type in all cases: in vivo
[1] = system: ducksalad (Heteranthera limosa); test: Test B flooded paddy test, visual plant response rating 0-100; conditions: 250 g ai/ha, Flood, applied to paddy water, evaluated after 13 days
Summary of the method: (§1)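 2-leaf plants; flood 3 cm over soil; compound dosed into paddy water; depth kept constant; greenhouse 13 d; visual scoring vs controls. Dash = no result.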

[2] = system: sedge, umbrella (small-flower umbrella sedge, Cyperus difformis); test: as above; conditions: 250 g ai/ha, Flood, applied to paddy water, evaluated after 13 days
Summary of the method: as §1

rice (Oryza sativa) = test: as above; conditions: 250 g ai/ha, Flood, applied to paddy water, evaluated after 13 days
Summary of the method: as §1

[3] = system: barnyardgrass (Echinochloa crusgalli); test: as above; conditions: 250 g ai/ha, Flood, applied to paddy water, evaluated after 13 days
Summary of the method: as §1

[4] = system: ryegrass, Italian (italian ryegrass, Lolium multiflorum); test: Test A postemergence application, visual injury rating 0-100
Summary of the method: (§2)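 Plants were grown in a loam soil-sand blend and treated with test chemical in a non-phytotoxic solvent mixture containing surfactant, either sprayed on soil preemergence or applied postemergence to 2-10 cm plants. After 10 days in a greenhouse, injury was scored visually against untreated controls, 0 meaning no effect and 100 complete control.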

soybean (Glycine max) [5] = test: as above
Summary of the method: as §2

[6] = system: wheat (Triticum aestivum); test: as above
Summary of the method: as §2

[7] = system: ragweed (common ragweed, Ambrosia artemisiifolia); test: as above
Summary of the method: as §2

corn (Zea mays) [8] = test: as above
Summary of the method: as §2

[9] = system: blackgrass (Alopecurus myosuroides); test: as above
Summary of the method: as §2

[10] = system: green foxtail (Setaria viridis); test: as above
Summary of the method: as §2

[11] = system: palmer (palmer amaranth, palmer pigweed, Amaranthus palmeri); test: as above
Summary of the method: as §2

[12] = system: oat, wild (wild oat, Avena fatua); test: as above
Summary of the method: as §2

kochia (Bassia scoparia) [13] = test: as above
Summary of the method: as §2

[14] = system: galium (catchweed bedstraw, Galium aparine); test: as above
Summary of the method: as §2

[15] = system: horseweed (Erigeron canadensis); test: as above
Summary of the method: as §2

[16] = system: barnyardgrass (Echinochloa crus-galli); test: as above
Summary of the method: as §2

[17] = system: ryegrass, Italian (italian ryegrass, Lolium multiflorum); test: Test A preemergence soil spray, visual injury rating 0-100; conditions: 10 days
Summary of the method: as §2

soybean (Glycine max) [18] = test: as above; conditions: 10 days
Summary of the method: as §2

[19] = system: wheat (Triticum aestivum); test: as above; conditions: 10 days
Summary of the method: as §2

[20] = system: ragweed (common ragweed, Ambrosia artemisiifolia); test: as above; conditions: 10 days
Summary of the method: as §2

corn (Zea mays) [21] = test: as above; conditions: 10 days
Summary of the method: as §2

[22] = system: blackgrass (Alopecurus myosuroides); test: as above; conditions: 10 days
Summary of the method: as §2

[23] = system: green foxtail (Setaria viridis); test: as above; conditions: 10 days
Summary of the method: as §2

[24] = system: palmer (palmer amaranth, palmer pigweed, Amaranthus palmeri); test: as above; conditions: 10 days
Summary of the method: as §2

[25] = system: oat, wild (wild oat, Avena fatua); test: as above; conditions: 10 days
Summary of the method: as §2

kochia (Bassia scoparia) [26] = test: as above; conditions: 10 days
Summary of the method: as §2

[27] = system: barnyardgrass (Echinochloa crus-galli); test: as above; conditions: 10 days
Summary of the method: as §2

[28] = 62 g ai/ha, postemergence, 10 days, 0 = no effect, 100 = complete control
[29] = Postemergence, 16 g ai/ha, greenhouse 10 days, 0 no effect, 100 complete control
[30] = 62 g ai/ha, 0 = no effect, 100 = complete control

COC(=O)C1C=CC(NC(=O)C2(C)CN(c3cc(Cl)c(F)c(Cl)c3)C(=O)O2)C1 (stereo not shown) [Compound 150]
70: Soybean plant response rating (0-100) (soybean (Glycine max) [5]; [28]) | Wheat plant response rating (0 to 100 scale) [6, 29] | Kochia plant response rating (0-100) (kochia (Bassia scoparia) [13]; [28]) | Galium plant response rating (0 to 100 scale) [14, 29] | Corn plant response rating (0-100) (corn (Zea mays) [21]; [30])
10: Ryegrass, Italian plant response rating ([17]; 16 g ai/ha, 0 to 100 scale) | Pigweed, Palmer plant response rating ([24]; 16 g ai/ha, 0 to 100 scale) | Oat, Wild plant response rating (0-100) [25, 30]
40: Pigweed, Palmer plant response rating (0 to 100 scale) [11, 29]
30: Plant response rating, Rice (0 to 100 scale, 0 is no effect and 100 is complete control) (rice (Oryza sativa))
80: Ryegrass, Italian plant response rating (0-100) [4, 28] | Blackgrass plant response rating (0 to 100 scale) [9, 29] | Galium plant response rating (0-100) [14, 28] | Wheat plant response rating (0-100) [19, 30]
65: Plant response rating, Barnyardgrass (0 to 100 scale, 0 is no effect and 100 is complete control) [3]
85: Plant response rating, Ducksalad (0 to 100 scale, 0 is no effect and 100 is complete control) [1]
50: Ryegrass, Italian plant response rating (0 to 100 scale) [4, 29] | Ragweed plant response rating (0-100) [7, 28] | Ryegrass, Italian plant response rating (0-100) [17, 30] | Blackgrass plant response rating (0-100) [22, 30]
0: Ragweed plant response rating (0 to 100 scale) [7, 29] | Soybean plant response rating (soybean (Glycine max) [18]; 16 g ai/ha, 0 to 100 scale) | Soybean plant response rating (0-100) (soybean (Glycine max) [18]; [30]) | Wheat plant response rating ([19]; 16 g ai/ha, 0 to 100 scale) | Ragweed plant response rating ([20]; 16 g ai/ha, 0 to 100 scale) | Ragweed plant response rating (0-100) [20, 30] | Corn plant response rating (corn (Zea mays) [21]; 16 g ai/ha, 0 to 100 scale) | Blackgrass plant response rating ([22]; 16 g ai/ha, 0 to 100 scale) | Foxtail, Green plant response rating ([23]; 16 g ai/ha, 0 to 100 scale) | Oat, Wild plant response rating ([25]; 16 g ai/ha, 0 to 100 scale) | Barnyardgrass plant response rating ([27]; 16 g ai/ha, 0 to 100 scale)
60: Soybean plant response rating (0 to 100 scale) (soybean (Glycine max) [5]; [29]) | Pigweed, Palmer plant response rating (0-100) [11, 28] | Oat, Wild plant response rating (0 to 100 scale) [12, 29] | Horseweed plant response rating (0-100) [15, 28]
75: Plant response rating, Sedge, Umbrella (0 to 100 scale, 0 is no effect and 100 is complete control) [2]
90: Wheat plant response rating (0-100) [6, 28] | Blackgrass plant response rating (0-100) [9, 28] | Foxtail, Green plant response rating (0-100) [10, 28] | Oat, Wild plant response rating (0-100) [12, 28] | Barnyardgrass plant response rating (0 to 100 scale) [16, 29] | Foxtail, Green plant response rating (0-100) [23, 30] | Pigweed, Palmer plant response rating (0-100) [24, 30] | Kochia plant response rating (0-100) (kochia (Bassia scoparia) [26]; [30]) | Barnyardgrass plant response rating (0-100) [27, 30]
100: Corn plant response rating (0-100) (corn (Zea mays) [8]; [28]) | Corn plant response rating (0 to 100 scale) (corn (Zea mays) [8]; [29]) | Barnyardgrass plant response rating (0-100) [16, 28]
20: Foxtail, Green plant response rating (0 to 100 scale) [10, 29] | Kochia plant response rating (0 to 100 scale) (kochia (Bassia scoparia) [13]; [29]) | Horseweed plant response rating (0 to 100 scale) [15, 29] | Kochia plant response rating (kochia (Bassia scoparia) [26]; 16 g ai/ha, 0 to 100 scale)
